# Structures can show the parent of a compound that is named as a salt.
# Target: T1, 5HT2 receptors (Rattus norvegicus, UniProt P14842)
# T1 construct: from tissue; host or cells: external jugular vein of male Wistar rats
# Test: Apparent dissociation constants (KB) against serotonin contraction in rat jugular vein
# Assay type: cell-based
# Conditions: serotonin agonist, antagonist incubated one hour, read-out: 5HT2 -Log Kb ± S.E. (converted)
# Procedure: An initial optimum resting force of 1 and 4 g was applied to the jugular veins and aorta, respectively. […] Exp. Ther., 205, 400 (1978). Alpha receptor antagonist activity was evaluated in the aorta.
# T1 sequence (P14842 whole entry): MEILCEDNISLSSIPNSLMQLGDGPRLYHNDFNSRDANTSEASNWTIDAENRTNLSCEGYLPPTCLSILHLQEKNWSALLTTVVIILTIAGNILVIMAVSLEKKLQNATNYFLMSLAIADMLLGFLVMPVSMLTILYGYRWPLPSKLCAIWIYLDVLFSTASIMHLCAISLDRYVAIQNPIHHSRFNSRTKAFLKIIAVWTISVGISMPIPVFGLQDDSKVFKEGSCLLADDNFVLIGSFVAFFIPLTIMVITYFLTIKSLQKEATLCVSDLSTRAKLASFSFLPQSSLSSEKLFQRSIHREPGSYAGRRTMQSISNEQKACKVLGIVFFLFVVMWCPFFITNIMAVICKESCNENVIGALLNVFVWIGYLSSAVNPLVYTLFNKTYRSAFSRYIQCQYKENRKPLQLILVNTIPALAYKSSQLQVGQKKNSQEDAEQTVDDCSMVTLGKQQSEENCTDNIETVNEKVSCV
row,SMILES,Kb [nM]
1,"COc1ccc(C(=O)COC(=O)[C@@H]2C[C@@H]3c4cccc5c4c(cn5C(C)C)C[C@H]3N(C)C2)cc1 [R^3=H R^4=H R^10=p-OCH3 maleate, p-Methoxyphenacyl 1-isopropyl-9,10-dihydrolysergate maleate]",1.29
2,"CC(OC(=O)[C@@H]1C[C@@H]2c3cccc4c3c(cn4C(C)C)C[C@H]2N(C)C1)C(=O)c1ccccc1 (mixture of isomers) [R^3=CH3 R^4=H R^10=H maleate, (±)-α-Methylphenacyl 1-isopropyl-9,10-dihydrolysergate maleate]",4.57
3,"CC(C)n1cc2c3c(cccc31)[C@H]1C[C@@H](C(=O)OCC(=O)c3ccc(Cl)cc3)CN(C)[C@@H]1C2 [R^3=H R^4=H R^10=p-Cl maleate, p-Chlorophenacyl 1-isopropyl-9,10-dihydrolysergate maleate]",34.7
4,"CC(C)n1cc2c3c(cccc31)[C@H]1C[C@@H](C(=O)OCC(=O)c3ccc(-c4ccccc4)cc3)CN(C)[C@@H]1C2 [R^3=H R^4=H R^10=p-phenyl maleate, 4-Phenylphenacyl 1-isopropyl-9,10-dihydrolysergate maleate]",70.8
5,"CC(C)n1cc2c3c(cccc31)[C@H]1C[C@@H](C(=O)OC(C)(C)C(=O)c3ccccc3)CN(C)[C@@H]1C2 [R^3=CH3 R^4=CH3 R^10=H maleate, α,α-Dimethylphenacyl 1-isopropyl-9,10-dihydrolysergate maleate monohydrate]",14.8
6,"CC(OC(=O)[C@@H]1C[C@@H]2c3cccc4c3c(cn4C(C)C)C[C@H]2N(C)C1)C(=O)c1ccc(O)cc1 (stereo partly drawn) [R^3=CH3 R^4=H R^10=p-OH maleate, α-Methyl-p-hydroxyphenacyl 1-isopropyl-9,10-dihydrolysergate maleate]",0.347
7,"CC(C)n1cc2c3c(cccc31)[C@H]1C[C@@H](C(=O)OCC(=O)c3ccc(O)cc3)CN(C)[C@@H]1C2 [R^3=H R^4=H R^10=p-OH maleate.H2 O, p-Hydroxyphenacyl 1-isopropyl-9,10-dihydrolysergate maleate]",0.138
8,"CC(C)n1cc2c3c(cccc31)[C@H]1C[C@@H](C(=O)OCC(=O)c3ccccc3)CN(C)[C@@H]1C2 [R^3=H R^4=H R^10=H maleate.H2 O, phenacyl 1-isopropyl-9,10-dihydrolysergate maleate monohydrate]",15.1
